Laboratory results: US9334268B2, “4-amino-imidazoquinoline compounds” (Hoffmann-La Roche Inc., priority 2014, dated 2016)
Counter-ions that a name gives are not always drawn.

Experiments:
human TLR8 = human TLR8 (Homo sapiens (Human), UniProt Q9NR97); assay: HEK-Blue human TLR8 SEAP reporter assay; format: cell-based; details: HEK-Blue human TLR8 cells, NF-κB-regulated SEAP reporter, stimulation for 24 hr
Procedure: (§1) For TLR8 and TLR7 activity testing, HEK-Blue human TLR8 or TLR7 cells, respectively, (Invivogen, San Diego, Calif., USA) transfected with a SEAP reporter (secreted embryonic alkaline phosphatase) construct were used, in which the reporter expression is regulated by the NF-κB promoter upon stimulation for 24 hr. The reporter activity was determined using Quanti Blue kit (Invivogen, San Diego, Calif., USA) at a wavelength of 640 nm.
(§2) EC50 values were determined using Activity Base analysis (ID Business Solution, Limited).

human TLR7 = human TLR7 (Homo sapiens (Human), UniProt Q9NYK1); assay: HEK-Blue human TLR7 SEAP reporter assay; format: cell-based; details: for EC50: HEK-Blue human TLR7 cells, NF-κB-regulated SEAP reporter, stimulation for 24 hr
human TLR7, sequence (Q9NYK1 27-1049): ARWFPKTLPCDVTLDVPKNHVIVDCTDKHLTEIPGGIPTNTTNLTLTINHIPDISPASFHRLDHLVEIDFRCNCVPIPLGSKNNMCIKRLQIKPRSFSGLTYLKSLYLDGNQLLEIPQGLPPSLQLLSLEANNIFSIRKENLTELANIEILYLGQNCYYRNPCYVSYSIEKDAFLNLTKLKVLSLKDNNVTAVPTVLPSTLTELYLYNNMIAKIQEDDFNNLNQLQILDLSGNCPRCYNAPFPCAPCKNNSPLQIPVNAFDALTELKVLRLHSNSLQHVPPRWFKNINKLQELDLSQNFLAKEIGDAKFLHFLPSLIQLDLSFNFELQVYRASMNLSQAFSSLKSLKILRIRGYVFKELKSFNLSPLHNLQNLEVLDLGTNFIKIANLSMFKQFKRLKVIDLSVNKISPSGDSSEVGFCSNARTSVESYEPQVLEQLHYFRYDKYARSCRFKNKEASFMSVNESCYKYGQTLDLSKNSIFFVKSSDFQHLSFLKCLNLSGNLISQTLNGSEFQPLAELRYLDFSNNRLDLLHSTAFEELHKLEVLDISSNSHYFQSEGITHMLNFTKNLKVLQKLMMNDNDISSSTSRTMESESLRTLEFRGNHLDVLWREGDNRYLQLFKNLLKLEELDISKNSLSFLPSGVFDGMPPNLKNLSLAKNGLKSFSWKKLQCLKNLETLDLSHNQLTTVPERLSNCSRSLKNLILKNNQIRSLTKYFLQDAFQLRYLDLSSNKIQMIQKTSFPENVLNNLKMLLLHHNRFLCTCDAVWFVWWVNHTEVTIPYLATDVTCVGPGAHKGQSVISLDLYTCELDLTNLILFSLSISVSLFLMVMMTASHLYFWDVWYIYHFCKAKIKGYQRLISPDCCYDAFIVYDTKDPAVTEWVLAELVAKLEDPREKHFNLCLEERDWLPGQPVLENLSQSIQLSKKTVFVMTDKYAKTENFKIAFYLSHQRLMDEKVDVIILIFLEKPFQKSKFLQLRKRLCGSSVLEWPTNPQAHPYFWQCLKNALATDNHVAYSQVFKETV
Procedure: as §1, §2

human TLR8, sequence (Q9NR97 27-1041): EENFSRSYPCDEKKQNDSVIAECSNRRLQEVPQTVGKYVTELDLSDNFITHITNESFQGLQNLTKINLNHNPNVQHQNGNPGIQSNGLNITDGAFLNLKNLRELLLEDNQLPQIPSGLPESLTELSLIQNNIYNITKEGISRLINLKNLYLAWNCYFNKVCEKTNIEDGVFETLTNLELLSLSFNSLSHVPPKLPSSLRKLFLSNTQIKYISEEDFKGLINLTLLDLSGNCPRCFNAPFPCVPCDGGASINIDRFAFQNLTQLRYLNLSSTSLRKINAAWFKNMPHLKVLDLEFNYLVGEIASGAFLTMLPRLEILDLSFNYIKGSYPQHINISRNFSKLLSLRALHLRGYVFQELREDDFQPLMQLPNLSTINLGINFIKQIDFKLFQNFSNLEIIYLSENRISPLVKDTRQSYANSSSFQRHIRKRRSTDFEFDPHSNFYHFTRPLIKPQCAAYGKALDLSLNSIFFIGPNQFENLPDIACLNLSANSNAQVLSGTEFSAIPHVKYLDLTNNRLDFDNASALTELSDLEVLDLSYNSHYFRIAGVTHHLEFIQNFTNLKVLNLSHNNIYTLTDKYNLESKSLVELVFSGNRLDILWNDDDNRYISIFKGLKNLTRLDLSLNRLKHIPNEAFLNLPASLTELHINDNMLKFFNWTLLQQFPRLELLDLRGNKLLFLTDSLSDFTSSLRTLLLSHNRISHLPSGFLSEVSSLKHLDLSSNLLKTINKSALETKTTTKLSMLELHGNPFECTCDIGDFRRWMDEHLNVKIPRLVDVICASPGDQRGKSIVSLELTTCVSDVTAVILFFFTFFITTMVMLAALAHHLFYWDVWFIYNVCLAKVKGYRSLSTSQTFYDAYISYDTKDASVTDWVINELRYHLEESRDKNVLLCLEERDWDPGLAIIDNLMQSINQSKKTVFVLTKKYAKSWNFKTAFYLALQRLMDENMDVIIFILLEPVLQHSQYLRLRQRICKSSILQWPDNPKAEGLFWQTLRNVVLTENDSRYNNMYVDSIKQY

SMILES	EC50 (human TLR8) [nM]	EC50 (human TLR7) [nM]	cellular potency at TLR7 (human TLR7; statement in words, compared with resiquimod)
CCOCc1nc2c(N)nc3ccccc3c2n1CCOCCN [1-(2-(2-Aminoethoxy)ethyl)-2-(ethoxymethyl)-1H-imidazo[4,5-c]quinolin-4-amine, reference compound]	49000	> 100000	do not show the required activity
CCOCc1nc2c(N)nc3ccccc3c2n1CC(C)(C)OCCN [Example 1, 1-(2-(2-Aminoethoxy)-2-methylpropyl)-2-(ethoxymethyl)-1H-imidazo[4,5-c]quinolin-4-amine]	580	60	–
CCOCc1nc2c(N)nc3ccccc3c2n1CC(C)(C)OC(=O)CN [Example 2, 1-(4-Amino-2-(ethoxymethyl)-1H-imidazo[4,5-c]quinolin-1-yl)-2-methylpropan-2-yl 2-aminoacetate]	80	50	–
CCOCc1nc2c(N)nc3ccccc3c2n1CC(C)(C)OCCNC(=O)c1cccnc1 [Example 3, N-(2-(1-(4-Amino-2-(ethoxymethyl)-1H-imidazo[4,5-c]quinolin-1-yl)-2-methylpropan-2-yloxy)ethyl)nicotinamide]	35000	223	–
CCOCc1nc2c(N)nc3ccccc3c2n1CC(C)(C)OCCNC(C)=O [Example 4, N-(2-(1-(4-Amino-2-(ethoxymethyl)-1H-imidazo[4,5-c]quinolin-1-yl)-2-methylpropan-2-yloxy)ethyl)acetamide]	–	27	–
CCOCc1nc2c(N)nc3ccccc3c2n1CC(C)(C)OCCNCCCO [Example 5, 3-(2-(1-(4-Amino-2-(ethoxymethyl)-1H-imidazo[4,5-c]quinolin-1-yl)-2-methylpropan-2-yloxy)ethylamino)propan-1-ol]	10500	900	–
CCOCc1nc2c(N)nc3ccccc3c2n1CC(C)(C)OCCNC(=O)CCCCCNC(=O)OC(C)(C)C [Example 6, tert-Butyl 6-(2-(1-(4-amino-2-(ethoxymethyl)-1H-imidazo[4,5-c]quinolin-1-yl)-2-methylpropan-2-yloxy)ethylamino)-6-oxohexylcarbamate]	2900	195	–
CCOCc1nc2c(N)nc3cc(/C=C/C(=O)OCC)ccc3c2n1CC(C)(C)OCCN [Example 7, (E)-Ethyl 3-(4-amino-1-(2-(2-aminoethoxy)-2-methylpropyl)-2-(ethoxymethyl)-1H-imidazo[4,5-c]quinolin-7-yl)acrylate]	1080	139	–
CCOCc1nc2c(N)nc3cc(CCC(=O)OCC)ccc3c2n1CC(C)(C)OCCN [Example 8, Ethyl 3-(4-amino-1-(2-(2-aminoethoxy)-2-methylpropyl)-2-(ethoxymethyl)-1H-imidazo[4,5-c]quinolin-7-yl)propanoate hydrochloride]	256	134	–
CCOCc1nc2c(N)nc3cc(CCC(=O)OCC)ccc3c2n1CC(C)(C)OC(=O)CN [Example 9, Ethyl 3-(4-amino-1-(2-(2-aminoacetoxy)-2-methylpropyl)-2-(ethoxymethyl)-1H-imidazo[4,5-c]quinolin-7-yl)propanoate]	54	55	–
CCCCCc1nc2c(N)nc3ccccc3c2n1CC(C)(C)OCCN [Example 10, 1-(2-(2-Aminoethoxy)-2-methylpropyl)-2-pentyl-1H-imidazo[4,5-c]quinolin-4-amine]	2700	152	–
CCOCc1nc2c(N)nc3cc(Br)ccc3c2n1CC(C)(C)OCCN [Example 11, 1-(2-(2-Aminoethoxy)-2-methylpropyl)-7-bromo-2-(ethoxymethyl)-1H-imidazo[4,5-c]quinolin-4-amine hydrochloride]	2900	130	–
